Source: ChEMBL document CHEMBL1201862, “PubChem BioAssay data set” (2004)
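Following 48 hours of exposure in 96-well plates, responses at five concentrations were used to interpolate endpoints linearly. GI50: concentration for 50% inhibition of growth.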 Active and inactive are the calls of the source. Rule as the data show it: active = GI50 up to about 1.1 µM and inactive = higher.

How the values were obtained:
Test in all cases: inhibition of tumour cell growth, NCI panel, 48 h
SK-MEL-2 = test system: SK-MEL-2
SW-620 = test system: SW-620
OVCAR-3 = test system: OVCAR-3
BT-549 = test system: BT-549
MDA-MB-231 = test system: MDA-MB-231
MDA-N = test system: MDA-N
HCC 2998 = test system: HCC 2998
Malme-3M = test system: Malme-3M
A498 = test system: A498
SK-MEL-28 = test system: SK-MEL-28
MDA-MB-435 = test system: MDA-MB-435
RXF 393 = test system: RXF 393
MCF7 = test system: MCF7
A549 = test system: A549
M14 = test system: M14
SK-OV-3 = test system: SK-OV-3
IGROV-1 = test system: IGROV-1
CCRF-CEM = test system: CCRF-CEM
RPMI-8226 = test system: RPMI-8226
HOP-62 = test system: HOP-62

| SMILES | GI50 (SK-MEL-2) | GI50 (SW-620) | GI50 (OVCAR-3) | GI50 (BT-549) | GI50 (MDA-MB-231) | GI50 (MDA-N) | GI50 (HCC 2998) | GI50 (Malme-3M) | GI50 (A498) | GI50 (SK-MEL-28) | GI50 (MDA-MB-435) | GI50 (RXF 393) | GI50 (MCF7) | GI50 (A549) | GI50 (M14) | GI50 (SK-OV-3) | GI50 (IGROV-1) | GI50 (CCRF-CEM) | GI50 (RPMI-8226) | GI50 (HOP-62) |
| --- | --- | --- | --- | --- | --- | --- | --- | --- | --- | --- | --- | --- | --- | --- | --- | --- | --- | --- | --- | --- |
| COC(=N)C1(C#N)NC(c2ccsc2)C(C#N)(C#N)NC1c1ccsc1 (stereo not given) | > 100 µM (inactive) | > 100 µM (inactive) | > 100 µM (inactive) | > 100 µM (inactive) | 76.7 µM (inactive) | > 100 µM (inactive) | > 100 µM (inactive) | > 100 µM (inactive) | > 100 µM (inactive) | > 100 µM (inactive) | > 100 µM (inactive) | > 100 µM (inactive) | > 100 µM (inactive) | > 100 µM (inactive) | > 100 µM (inactive) | > 100 µM (inactive) | > 100 µM (inactive) | > 100 µM (inactive) | > 100 µM (inactive) | > 100 µM (inactive) |
| CC(=O)O[C@H]1C(=O)[C@@]2(C)C([C@H](OC(=O)c3ccccc3)[C@]3(O)C[C@H](OC(=O)[C@H](O)[C@@H](NC(=O)c4ccc(Cl)cc4)c4ccccc4)C(C)=C1C3(C)C)C1(OC(C)=O)CO[C@@H]1C[C@@H]2O (stereo not given in full) | 0.0274 µM (active) | 0.0569 µM (active) | 0.0346 µM (active) | 0.0643 µM (active) | 0.265 µM (active) | 0.00665 µM (active) | < 0.01 µM (active) | 0.094 µM (active) | 0.322 µM (active) | 0.114 µM (active) | 0.00507 µM (active) | 1.02 µM (active) | 0.0181 µM (active) | 0.168 µM (active) | 0.0889 µM (active) | 0.0986 µM (active) | 0.0946 µM (active) | < 0.01 µM (active) | < 0.01 µM (active) | 0.474 µM (active) |
| Cc1c(CCCl)c(Cl)n2c(nc3ccccc32)c1C#N | 1.06 µM (active) | 0.161 µM (active) | 1.35 µM (inactive) | 2.21 µM (inactive) | 1.32 µM (inactive) | 0.826 µM (active) | 1.56 µM (inactive) | 1.26 µM (inactive) | 1.37 µM (inactive) | 1.94 µM (inactive) | 0.796 µM (active) | 0.787 µM (active) | 0.653 µM (active) | 1.4 µM (inactive) | 1.14 µM (inactive) | 4.9 µM (inactive) | 1.62 µM (inactive) | 0.045 µM (active) | 0.092 µM (active) | 2 µM (inactive) |
| CC1OC(O[C@H]2CC[C@]3(C=O)[C@H]4CC[C@]5(C)[C@H](C6=CC(=O)OC6)CC[C@]5(O)[C@@H]4C=C[C@]3(O)C2)CC(O)C1O (stereo not given in full) | 0.505 µM (active) | 0.313 µM (active) | 0.15 µM (active) | 0.224 µM (active) | 0.433 µM (active) | 0.332 µM (active) | 0.836 µM (active) | 0.13 µM (active) | 0.176 µM (active) | 0.692 µM (active) | 0.346 µM (active) | 0.0661 µM (active) | 0.272 µM (active) | 0.113 µM (active) | 0.386 µM (active) | 0.502 µM (active) | 0.157 µM (active) | 0.102 µM (active) | 0.136 µM (active) | 0.188 µM (active) |
| CN[C@@H](Cc1cccc2ccccc12)C(=O)N[C@@H](CC(C)C)B(O)O | < 0.01 µM (active) | < 0.01 µM (active) | < 0.01 µM (active) | < 0.01 µM (active) | < 0.01 µM (active) | < 0.01 µM (active) | < 0.01 µM (active) | < 0.01 µM (active) | < 0.01 µM (active) | < 0.01 µM (active) | < 0.01 µM (active) | < 0.01 µM (active) | < 0.01 µM (active) | < 0.01 µM (active) | < 0.01 µM (active) | 0.166 µM (active) | < 0.01 µM (active) | 0.00516 µM (active) | < 0.01 µM (active) | < 0.011 µM (active) |
| CCCS(=O)OC1C(C2COC(C)(C)O2)OC2OC(C)(C)OC21 (stereo not given) | 16.1 µM (inactive) | 8.49 µM (inactive) | 15.1 µM (inactive) | 12.1 µM (inactive) | 13.1 µM (inactive) | 15.1 µM (inactive) | 16.5 µM (inactive) | 9.59 µM (inactive) | 32.1 µM (inactive) | 14.5 µM (inactive) | 6.31 µM (inactive) | 9.59 µM (inactive) | 12.4 µM (inactive) | 20.9 µM (inactive) | 8.61 µM (inactive) | 22 µM (inactive) | 14.3 µM (inactive) | 3.15 µM (inactive) | 2.88 µM (inactive) | 13.6 µM (inactive) |
| Cc1cc(O)c(C(C)C)cc1/N=C/c1ccccc1O | 11 µM (inactive) | 1.98 µM (inactive) | 2.48 µM (inactive) | 8.3 µM (inactive) | 1.73 µM (inactive) | 3.72 µM (inactive) | 7.29 µM (inactive) | 14.7 µM (inactive) | 23.6 µM (inactive) | 15.1 µM (inactive) | 1.99 µM (inactive) | 1.34 µM (inactive) | 7.26 µM (inactive) | 18.5 µM (inactive) | 15.4 µM (inactive) | 15.2 µM (inactive) | 8.43 µM (inactive) | 0.0242 µM (active) | 0.278 µM (active) | 11.7 µM (inactive) |
| Nc1ccc(Oc2ccc(C34CC5CC6C3CC3CC4C(C5)C6(c4ccc(Oc5ccc(N)cc5)cc4)C3)cc2)cc1 | 4.37 µM (inactive) | 19.7 µM (inactive) | 6.5 µM (inactive) | 34.4 µM (inactive) | 9.08 µM (inactive) | 0.334 µM (active) | 18 µM (inactive) | 0.216 µM (active) | 22.2 µM (inactive) | 0.714 µM (active) | 0.376 µM (active) | 18.6 µM (inactive) | 36.2 µM (inactive) | 12.6 µM (inactive) | 0.583 µM (active) | 22.8 µM (inactive) | 23.8 µM (inactive) | 15.4 µM (inactive) | 13 µM (inactive) | 18.3 µM (inactive) |
| COc1cc2c(cc1OC)[C@H]1C(=O)c3cc4c(cc3[C@H]1N(C)C2=O)OCO4 | > 100 µM (inactive) | 2.44 µM (inactive) | 19.2 µM (inactive) | > 49.4 µM (inactive) | 28 µM (inactive) | 12.1 µM (inactive) | 37.6 µM (inactive) | 7.53 µM (inactive) | 8.43 µM (inactive) | > 100 µM (inactive) | 16.6 µM (inactive) | 21.8 µM (inactive) | 2.4 µM (inactive) | 21.8 µM (inactive) | 2.92 µM (inactive) | 6.7 µM (inactive) | 11.2 µM (inactive) | 0.366 µM (active) | 4.34 µM (inactive) | 5.07 µM (inactive) |
| COc1ccc(N2C(=O)[C@H]3[C@H]4CC(C(C)(C)C)CC[C@H]4c4c(n(C)c5ccccc45)[C@H]3C2=O)cc1 (stereo not given in full) | > 4.65 µM (inactive) | > 100 µM (inactive) | > 100 µM (inactive) | > 100 µM (inactive) | > 100 µM (inactive) | > 100 µM (inactive) | 5.62 µM (inactive) | > 100 µM (inactive) | > 46.5 µM (inactive) | > 100 µM (inactive) | > 100 µM (inactive) | > 23.7 µM (inactive) | > 46.5 µM (inactive) | > 100 µM (inactive) | > 100 µM (inactive) | > 100 µM (inactive) | > 100 µM (inactive) | > 100 µM (inactive) | > 100 µM (inactive) | > 5.62 µM (inactive) |
| OC(COc1ccc(Cl)cc1Cl)CN1CCCC1 (stereo not given) | > 100 µM (inactive) | > 100 µM (inactive) | 58.9 µM (inactive) | 30.5 µM (inactive) | > 100 µM (inactive) | 56.6 µM (inactive) | 32.9 µM (inactive) | 60.1 µM (inactive) | 38.1 µM (inactive) | 37.7 µM (inactive) | 74.1 µM (inactive) | > 100 µM (inactive) | > 100 µM (inactive) | > 100 µM (inactive) | 20 µM (inactive) | > 100 µM (inactive) | > 100 µM (inactive) | 87.9 µM (inactive) | 57 µM (inactive) | > 100 µM (inactive) |
| Cc1cc2c3ccccc3n(C)c2c2c1C(=O)C=CC2=O | 18.1 µM (inactive) | 10.7 µM (inactive) | 15 µM (inactive) | 13.9 µM (inactive) | 15.3 µM (inactive) | 12.9 µM (inactive) | 20.2 µM (inactive) | 20 µM (inactive) | 17.8 µM (inactive) | 21.5 µM (inactive) | 18.9 µM (inactive) | 6.64 µM (inactive) | 4.3 µM (inactive) | 40.4 µM (inactive) | 17.8 µM (inactive) | 21.1 µM (inactive) | 16.8 µM (inactive) | 2.42 µM (inactive) | 1.58 µM (inactive) | 22.4 µM (inactive) |
| O=C1c2ccccc2CC12Cc1ccc3c(c1C2)CCC3 (stereo not given) | 15.9 µM (inactive) | 30.5 µM (inactive) | 17.4 µM (inactive) | 35.8 µM (inactive) | 12 µM (inactive) | 19.8 µM (inactive) | 24.3 µM (inactive) | 13.6 µM (inactive) | 85.3 µM (inactive) | 31 µM (inactive) | 16.1 µM (inactive) | 16.4 µM (inactive) | 16.9 µM (inactive) | 17.5 µM (inactive) | 19.1 µM (inactive) | 33.3 µM (inactive) | 25.5 µM (inactive) | 16.8 µM (inactive) | 19 µM (inactive) | 23.3 µM (inactive) |
